Test results published in ChEMBL document CHEMBL5665443, “Enzyme Inhibitor Single Concentration assay results for EUbOPEN Chemogenomics Library” (2024).

What was measured:
[1] = biological target: Methyl-CpG-binding domain protein 4 (Homo sapiens) (UniProt O95243); settings: Hit No;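 also: MBD4 activity read as fluorescence at 594 nm from cleavage and release of a quenched duplex DNA oligonucleotide, with APE1 coupled to incise the strand and raise turnover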
Description: Inhibition of MBD4 by quantifying inhibition of MBD4-mediated cleavage and dissociation of quenched duplex DNA oligonucleotides, measured as fluorescence at 594 nm. To generate a functional strand incision and increase turn-over this assay is coupled to APE1.

[2] = biological target: Endonuclease 8-like 1 (Homo sapiens) (UniProt Q96FI4); settings: Hit No;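 also: fluorescence at 594 nm from quenched duplex DNA oligonucleotides released by NEIL1 cleavage and strand separation, reported as reduction of this enzyme activity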
Endonuclease 8-like 1 (Homo sapiens), sequence (Q96FI4 whole entry): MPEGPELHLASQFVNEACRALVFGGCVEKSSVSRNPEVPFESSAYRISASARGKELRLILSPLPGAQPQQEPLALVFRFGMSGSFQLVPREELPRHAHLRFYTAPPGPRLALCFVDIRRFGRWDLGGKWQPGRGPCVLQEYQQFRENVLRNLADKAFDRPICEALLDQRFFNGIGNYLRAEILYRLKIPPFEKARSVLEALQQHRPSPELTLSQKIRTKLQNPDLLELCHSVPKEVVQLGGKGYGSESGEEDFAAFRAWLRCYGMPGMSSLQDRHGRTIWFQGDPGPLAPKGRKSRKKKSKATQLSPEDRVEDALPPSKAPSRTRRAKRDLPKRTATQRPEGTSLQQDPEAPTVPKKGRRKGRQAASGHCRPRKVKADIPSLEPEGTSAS
Description: Inhibition of NEIL1 by quantifying inhibition of NEIL1-mediated cleavage and dissociation of quenched duplex DNA oligonucleotides, measured as fluorescence at 594 nm.

[3] = biological target: T1, Endonuclease 8-like 2 (Homo sapiens) (UniProt Q969S2); settings: Hit No;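 also: fluorescence at 594 nm reports NEIL2 cutting and release of a quenched double-stranded DNA oligo substrate, reduced signal read as inhibition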
T1 sequence (whole entry): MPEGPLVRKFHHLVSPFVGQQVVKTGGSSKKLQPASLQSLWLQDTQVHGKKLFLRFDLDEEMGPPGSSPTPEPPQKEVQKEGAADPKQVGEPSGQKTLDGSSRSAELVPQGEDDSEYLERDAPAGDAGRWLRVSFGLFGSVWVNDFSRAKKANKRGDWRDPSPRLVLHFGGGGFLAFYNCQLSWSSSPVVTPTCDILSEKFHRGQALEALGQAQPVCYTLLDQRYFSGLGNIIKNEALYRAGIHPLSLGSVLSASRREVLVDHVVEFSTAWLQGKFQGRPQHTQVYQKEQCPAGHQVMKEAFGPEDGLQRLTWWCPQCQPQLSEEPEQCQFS
Description: Inhibition of NEIL2 by quantifying inhibition of NEIL2-mediated cleavage and dissociation of quenched duplex DNA oligonucleotides, measured as fluorescence at 594 nm.

[4] = biological target: T2, Endonuclease III-like protein 1 (Homo sapiens) (UniProt P78549); settings: Hit No;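 also: enzyme assay tracking NTHL1 cutting and release of a quenched double-stranded DNA oligo substrate, read as fluorescence at 594 nm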
T2 sequence (whole entry): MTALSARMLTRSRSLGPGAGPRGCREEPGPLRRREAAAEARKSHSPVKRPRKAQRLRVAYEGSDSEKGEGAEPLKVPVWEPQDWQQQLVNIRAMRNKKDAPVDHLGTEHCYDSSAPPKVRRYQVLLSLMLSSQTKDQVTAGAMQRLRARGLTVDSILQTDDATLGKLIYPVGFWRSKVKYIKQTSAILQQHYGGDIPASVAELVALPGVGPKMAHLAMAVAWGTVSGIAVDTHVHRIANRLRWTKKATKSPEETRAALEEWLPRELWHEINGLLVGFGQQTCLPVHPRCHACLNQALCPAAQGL
Description: Inhibition of NTHL1 by quantifying inhibition of NTHL1-mediated cleavage and dissociation of quenched duplex DNA oligonucleotides, measured as fluorescence at 594 nm.

[5] = biological target: N-glycosylase/DNA lyase (Homo sapiens) (UniProt O15527);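 also: OGG1 cleavage of a quenched duplex DNA oligonucleotide, coupled to APE1 for strand incision, read as fluorescence at 594 nm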
N-glycosylase/DNA lyase (Homo sapiens), sequence (O15527 whole entry): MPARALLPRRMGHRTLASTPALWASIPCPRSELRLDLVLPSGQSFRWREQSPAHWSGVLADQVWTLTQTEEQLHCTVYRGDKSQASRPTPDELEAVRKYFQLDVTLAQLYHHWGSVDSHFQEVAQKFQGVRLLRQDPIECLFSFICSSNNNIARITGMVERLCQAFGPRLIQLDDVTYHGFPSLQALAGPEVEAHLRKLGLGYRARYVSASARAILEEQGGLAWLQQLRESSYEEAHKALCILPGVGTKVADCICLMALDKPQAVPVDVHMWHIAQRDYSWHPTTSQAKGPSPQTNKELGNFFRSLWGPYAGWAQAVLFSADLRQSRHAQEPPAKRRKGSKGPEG
Description: Inhibition of OGG1 by quantifying inhibition of OGG1-mediated cleavage and dissociation of quenched duplex DNA oligonucleotides, measured as fluorescence at 594 nm. To generate a functional strand incision and increase turn-over this assay is coupled to APE1.

[6] = biological target: T3, Single-strand selective monofunctional uracil DNA glycosylase (Homo sapiens) (UniProt Q53HV7); settings: Hit No;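 also: enzymatic SMUG1 assay coupled with APE1, reading fluorescence at 594 nm released when a quenched double-stranded DNA oligonucleotide substrate is cleaved and separated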
T3 sequence (whole entry): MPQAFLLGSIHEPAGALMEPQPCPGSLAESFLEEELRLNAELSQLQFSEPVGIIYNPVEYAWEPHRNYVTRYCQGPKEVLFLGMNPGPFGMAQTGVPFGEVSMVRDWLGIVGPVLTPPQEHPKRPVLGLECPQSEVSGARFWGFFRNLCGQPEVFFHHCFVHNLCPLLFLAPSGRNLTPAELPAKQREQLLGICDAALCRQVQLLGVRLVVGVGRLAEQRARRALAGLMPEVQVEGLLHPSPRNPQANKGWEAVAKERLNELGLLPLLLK
Description: Inhibition of SMUG1 by quantifying inhibition of SMUG1-mediated cleavage and dissociation of quenched duplex DNA oligonucleotides, measured as fluorescence at 594 nm. To generate a functional strand incision and increase turn-over this assay is coupled to APE1.

[7] = biological target: G/T mismatch-specific thymine DNA glycosylase (Homo sapiens) (UniProt Q13569); settings: Hit No;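 also: human TDG cleavage of quenched duplex DNA oligonucleotides coupled to APE1, strand release read as fluorescence at 594 nm, inhibition of TDG activity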
G/T mismatch-specific thymine DNA glycosylase (Homo sapiens), sequence (Q13569 whole entry): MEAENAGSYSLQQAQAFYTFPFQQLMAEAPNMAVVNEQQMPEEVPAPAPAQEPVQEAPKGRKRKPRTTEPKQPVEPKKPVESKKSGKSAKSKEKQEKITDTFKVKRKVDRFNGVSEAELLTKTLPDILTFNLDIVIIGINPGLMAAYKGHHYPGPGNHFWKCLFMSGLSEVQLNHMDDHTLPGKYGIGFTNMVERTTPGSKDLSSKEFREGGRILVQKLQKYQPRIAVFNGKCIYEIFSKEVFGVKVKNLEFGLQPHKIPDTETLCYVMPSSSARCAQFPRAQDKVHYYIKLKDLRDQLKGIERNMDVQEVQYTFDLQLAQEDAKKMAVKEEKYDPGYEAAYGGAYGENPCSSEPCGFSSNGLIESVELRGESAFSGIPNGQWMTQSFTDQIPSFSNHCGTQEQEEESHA
Description: Inhibition of TDG by quantifying inhibition of TDG-mediated cleavage and dissociation of quenched duplex DNA oligonucleotides, measured as fluorescence at 594 nm. To generate a functional strand incision and increase turn-over this assay is coupled to APE1.

[8] = biological target: Uracil-DNA glycosylase (Homo sapiens) (UniProt P13051); settings: Hit No;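 also: UNG excision on a quenched double-stranded DNA oligo probe, with APE1 added for strand incision and turnover, read as fluorescence at 594 nm as strands separate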
Uracil-DNA glycosylase (Homo sapiens), sequence (P13051 whole entry): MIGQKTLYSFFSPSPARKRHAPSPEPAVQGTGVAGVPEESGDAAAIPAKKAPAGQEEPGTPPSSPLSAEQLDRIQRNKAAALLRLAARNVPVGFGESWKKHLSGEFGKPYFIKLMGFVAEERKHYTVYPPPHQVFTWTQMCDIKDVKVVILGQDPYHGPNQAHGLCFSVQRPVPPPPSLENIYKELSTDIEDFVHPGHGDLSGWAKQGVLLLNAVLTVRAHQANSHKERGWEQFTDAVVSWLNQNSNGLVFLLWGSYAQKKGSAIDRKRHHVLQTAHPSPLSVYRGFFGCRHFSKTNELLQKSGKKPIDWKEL
Description: Inhibition of UNG by quantifying inhibition of UNG-mediated cleavage and dissociation of quenched duplex DNA oligonucleotides, measured as fluorescence at 594 nm. To generate a functional strand incision and increase turn-over this assay is coupled to APE1.

[9] = Compound Concentration 10.0 uM, Hit No
[10] = Compound Concentration 1.0 uM, Hit No

Methyl-CpG-binding domain protein 4 (Homo sapiens), sequence (O95243 whole entry, the tested form may be a part): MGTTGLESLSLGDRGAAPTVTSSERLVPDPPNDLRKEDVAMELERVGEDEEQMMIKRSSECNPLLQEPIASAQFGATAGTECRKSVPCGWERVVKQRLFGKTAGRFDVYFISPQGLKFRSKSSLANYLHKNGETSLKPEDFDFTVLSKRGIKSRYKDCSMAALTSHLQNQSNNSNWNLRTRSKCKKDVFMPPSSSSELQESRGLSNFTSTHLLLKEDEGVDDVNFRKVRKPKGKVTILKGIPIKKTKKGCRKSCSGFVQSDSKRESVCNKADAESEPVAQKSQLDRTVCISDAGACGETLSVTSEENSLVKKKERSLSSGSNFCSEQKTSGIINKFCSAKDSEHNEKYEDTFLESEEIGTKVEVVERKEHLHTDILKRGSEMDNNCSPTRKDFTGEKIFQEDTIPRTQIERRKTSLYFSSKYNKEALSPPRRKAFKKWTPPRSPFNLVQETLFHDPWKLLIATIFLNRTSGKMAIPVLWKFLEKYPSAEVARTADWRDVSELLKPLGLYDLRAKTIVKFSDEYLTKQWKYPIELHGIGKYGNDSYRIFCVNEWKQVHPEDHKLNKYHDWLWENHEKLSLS

| inhibition ([1]; Compound Concentration 10.0 uM) [%] | inhibition ([2]; Compound Concentration 10.0 uM) [%] | inhibition ([3]; Compound Concentration 10.0 uM) [%] | inhibition ([4]; Compound Concentration 10.0 uM) [%] | inhibition [5, 9] [%] | inhibition ([6]; Compound Concentration 10.0 uM) [%] | inhibition ([7]; Compound Concentration 10.0 uM) [%] | inhibition ([8]; Compound Concentration 10.0 uM) [%] | inhibition ([5]; Compound Concentration 10.0 uM, Hit Yes) [%] | inhibition ([1]; Compound Concentration 1.0 uM) [%] | inhibition ([2]; Compound Concentration 1.0 uM) [%] | inhibition ([3]; Compound Concentration 1.0 uM) [%] | inhibition ([4]; Compound Concentration 1.0 uM) [%] | inhibition [5, 10] [%] | inhibition ([6]; Compound Concentration 1.0 uM) [%] | inhibition ([7]; Compound Concentration 1.0 uM) [%] | inhibition ([8]; Compound Concentration 1.0 uM) [%] | SMILES |
| --- | --- | --- | --- | --- | --- | --- | --- | --- | --- | --- | --- | --- | --- | --- | --- | --- | --- |
| 5.84 | -4.5 | -1.48 | 7.79 | 0.771 | 1.61 | 16.4 | -5.14 |  |  |  |  |  |  |  |  |  | FC(F)(F)c1c(N2CCC(c3ccccc3)CC2)ccn2c(CC3CC3)nnc12 |
| 57.8 | -4.23 | -9.42 | -1.29 |  | 17.5 | 50.7 | 4.34 | 85.9 |  |  |  |  |  |  |  |  | O=C(O)c1ccc2cc(-c3ccc(O)c(C45CC6CC(CC(C6)C4)C5)c3)ccc2c1 |
| 33.3 | -5.14 | 1.3 | 6.6 | 55.8 | -6.44 | 38.5 | 5.79 |  |  |  |  |  |  |  |  |  | COc1ccc2c(O[C@@H]3C[C@H]4C(=O)N[C@]5(C(=O)O)CC5/C=C\CCCCC[C@H](NC(=O)OC5CCCC5)C(=O)N4C3)cc(-c3csc(NC(=O)C(C)C)n3)nc2c1C (stereo partly specified) |
| 55.7 | -6.8 | 2.57 | -7.86 | 62 | 17.9 | 47.9 | 3.44 |  |  |  |  |  |  |  |  |  | CO[C@H]1CC[C@H](CNc2ccc(S(=O)(=O)NC(=O)c3ccc(N4CCN(CC5=C(c6ccc(Cl)cc6)CC(C)(C)CC5)CC4)cc3Oc3cnc4[nH]ccc4c3)cc2[N+](=O)[O-])CC1 |
| 53.8 | 0.77 | 15.3 | -4.57 | -1.05 | -1.6 | 28.5 | 0.169 |  |  |  |  |  |  |  |  |  | C=C1/C(=C\C=C2/CCC[C@]3(C)[C@@H]([C@H](C)/C=C/C=C/C(O)(CC)CC)CC[C@@H]23)C[C@@H](O)C[C@@H]1O |
|  |  |  |  |  |  |  |  |  | 25 | -6.27 | -4.38 | -4.24 | 0.775 | 3.33 | 32.5 | -2.6 | CN1C(=O)[C@@H](N2CCc3c(nn(Cc4ccccc4)c3Br)C2=O)COc2ccccc21 |
|  |  |  |  |  |  |  |  |  | 65.4 | 1.98 | 4.36 | -3.26 | 1.9 | 14.3 | 50.9 | 0.673 | COc1cc(N[C@@H]2CCCC[C@]2(O)C(F)(F)F)ccc1F |
| 49.9 | -3.92 | -4.32 | 1.34 | -2.62 | 21.1 | 35.7 | 2.8 |  |  |  |  |  |  |  |  |  | Cc1cc(C(=O)N2CCN(C3CN(C(=O)c4ccc(-c5ccccc5)cc4)C3)CC2)no1 |
| 45.8 | -7.56 | 4.1 | -7.86 | 1.85 | 10.3 | 53.4 | 2.34 |  |  |  |  |  |  |  |  |  | CNC(=O)COc1cc2cc(Nc3nc(N4C[C@H](C)C[C@H](C)C4)ncc3Cl)ccc2n(C)c1=O |
| 27.6 | -5.82 | -8.34 | -1.49 | 1.02 | 13.4 | 43.1 | 3.5 |  |  |  |  |  |  |  |  |  | Cc1cnc(-c2cc(Cl)ccc2F)cc1-n1c(=O)n(CC(N)=O)c2cnccc21 |
|  |  |  |  |  |  |  |  |  | 40 | -7.27 | -7.9 | -3.66 | 1.96 | 7.64 | 50.8 | 1.49 | Cc1cc(C)c(-n2ccn3nc(-c4cccnc4)cc23)cc1NC(=O)c1cc(C#N)cc(S(F)(F)(F)(F)F)c1 |
| 52.9 | -1.8 | -1.51 | 0.685 | -5.13 | 9.91 | 47.8 | 1.6 |  |  |  |  |  |  |  |  |  | C=C1/C(=C\C=C2/CCC[C@]3(C)[C@@H]([C@H](C)/C=C/[C@H](C)C(C)C)CC[C@@H]23)C[C@@H](O)C[C@@H]1O |
| 50.8 | 1.22 | 2.06 | 3.31 | 22.7 | 8.77 | 98.1 | -5.12 |  |  |  |  |  |  |  |  |  | CCOC(=O)c1ccc(C#Cc2ccc3c(c2)C(C)(C)CCS3)nc1 |
| 54 | -6.05 | -1.51 | -5.89 | -2.67 | 0.878 | 32.3 | -0.892 |  |  |  |  |  |  |  |  |  | Nc1nc(NCc2ccccc2)nc(-c2cccc(CO)c2)n1 |
| 47.6 | -6.8 | -2.02 | -8.52 | -1.15 | -2.17 | 64.2 | -1.04 |  |  |  |  |  |  |  |  |  | OC(c1ccc(-c2ccc(CN3CCN(Cc4ccncc4)CC3)cc2)c(F)c1)(C(F)(F)F)C(F)(F)F |
| 54.3 | -4.99 | 3.34 | 5.29 | 35.5 | 16.5 | 97.2 | 4.51 |  |  |  |  |  |  |  |  |  | O=C(O)c1ccnc(N2CC(O)(c3ccc(OCc4c(-c5c(Cl)cccc5Cl)noc4C4CC4)cc3Cl)C2)c1 |
| 26.3 | -2.56 | 3.34 | -7.86 | 21.8 | 17.9 | 35.3 | -3.29 |  |  |  |  |  |  |  |  |  | NS(=O)(=O)c1cc(NC(=O)C2(c3ccccc3Cl)CC2)ccc1Oc1cccc(Cl)c1 |
